Test results as given in ChEMBL document CHEMBL3769367, “Orexin Receptor Antagonists: New Therapeutic Agents for the Treatment of Insomnia” (J Med Chem, 2016).

What was measured:
Homo sapiens [1] = experiment: Effect on sleep parameter in insomnia patient assessed as wake after sleep onset time at 40 mg, po measured on night 28 by polysomnography; type: functional
Homo sapiens [2] = experiment: Effect on sleep parameter in insomnia patient assessed as total sleep time at 20 mg, po measured on night 28 by polysomnography; type: functional
Homo sapiens [3] = experiment: Effect on sleep parameter in insomnia patient assessed as wake after sleep onset time at 80 mg, po measured on night 28 by polysomnography; type: functional
Homo sapiens [4] = experiment: Effect on sleep parameter in insomnia patient assessed as latency to persistent sleep time at 80 mg, po measured on night 28 by polysomnography; type: functional
Homo sapiens [5] = experiment: Effect on sleep parameter in insomnia patient assessed as total sleep time at 10 mg, po measured on night 1 by polysomnography; type: functional
Homo sapiens [6] = experiment: Effect on sleep parameter in insomnia patient assessed as wake after sleep onset time at 20 mg, po measured on night 28 by polysomnography; type: functional
Homo sapiens [7] = experiment: Effect on sleep parameter in insomnia patient assessed as wake after sleep onset time at 10 mg, po measured on night 1 by polysomnography; type: functional
Homo sapiens [8] = experiment: Effect on sleep parameter in insomnia patient assessed as sleep efficiency at 10 mg, po measured on night 1 by polysomnography; type: functional
Homo sapiens [9] = experiment: Effect on sleep parameter in insomnia patient assessed as latency to persistent sleep time at 40 mg, po measured on night 28 by polysomnography; type: functional
Homo sapiens [10] = experiment: Effect on sleep parameter in insomnia patient assessed as latency to persistent sleep time at 20 mg, po measured on night 28 by polysomnography; type: functional
Homo sapiens [11] = experiment: Effect on sleep parameter in insomnia patient assessed as latency to persistent sleep time at 10 mg, po measured on night 28 by polysomnography; type: functional
Homo sapiens [12] = experiment: Effect on sleep parameter in insomnia patient assessed as sleep efficiency at 20 mg, po measured on night 1 by polysomnography; type: functional
[13] = Tmax in human plasma; type: ADME, organism-based
Homo sapiens [14] = experiment: Effect on sleep parameter in insomnia patient assessed as total sleep time at 80 mg, po measured on night 1 by polysomnography; type: functional
Homo sapiens [15] = experiment: Effect on sleep parameter in insomnia patient assessed as latency to persistent sleep time at 80 mg, po measured on night 1 by polysomnography; type: functional
Homo sapiens [16] = experiment: Effect on sleep parameter in insomnia patient assessed as total sleep time at 20 mg, po measured on night 1 by polysomnography; type: functional
Homo sapiens [17] = experiment: Effect on sleep parameter in insomnia patient assessed as wake after sleep onset time at 10 mg, po measured on night 28 by polysomnography; type: functional
Homo sapiens [18] = experiment: Effect on sleep parameter in insomnia patient assessed as latency to persistent sleep time at 10 mg, po measured on night 1 by polysomnography; type: functional
Homo sapiens [19] = experiment: Effect on sleep parameter in insomnia patient assessed as sleep efficiency at 10 mg, po measured on night 28 by polysomnography; type: functional
Homo sapiens [20] = experiment: Effect on sleep parameter in insomnia patient assessed as sleep efficiency at 80 mg, po measured on night 1 by polysomnography; type: functional
Homo sapiens [21] = experiment: Effect on sleep parameter in insomnia patient assessed as total sleep time at 40 mg, po measured on night 28 by polysomnography; type: functional
Rattus norvegicus [22] = species on record: Rattus norvegicus; experiment: Receptor occupancy at OX2R in rat brain assessed as drug level in plasma; type: functional
Homo sapiens [23] = experiment: Effect on sleep parameter in insomnia patient assessed as total sleep time at 80 mg, po measured on night 28 by polysomnography; type: functional
[24] = Clearance in iv dosed rat; type: ADME, organism-based; conditions: in vivo
Homo sapiens [25] = experiment: Effect on sleep parameter in insomnia patient assessed as latency to persistent sleep time at 20 mg, po measured on night 1 by polysomnography; type: functional
Homo sapiens [26] = experiment: Effect on sleep parameter in insomnia patient assessed as sleep efficiency at 80 mg, po measured on night 28 by polysomnography; type: functional
Homo sapiens [27] = experiment: Effect on sleep parameter in insomnia patient assessed as sleep efficiency at 20 mg, po measured on night 28 by polysomnography; type: functional
Homo sapiens [28] = experiment: Effect on sleep parameter in insomnia patient assessed as sleep efficiency at 40 mg, po measured on night 1 by polysomnography; type: functional
[29] = Terminal half life in human plasma; type: ADME, organism-based; conditions: read-out: beta t1/2 (converted)
Homo sapiens [30] = experiment: Effect on sleep parameter in insomnia patient assessed as wake after sleep onset time at 40 mg, po measured on night 1 by polysomnography; type: functional
Rattus norvegicus [31] = experiment: Effect on sleep parameter in po dosed rat by EEG analysis; type: functional
Canis familiaris [32] = experiment: Effect on sleep parameter in po dosed dog by EEG analysis; type: functional, Canis lupus familiaris
Homo sapiens [33] = experiment: Effect on sleep parameter in insomnia patient assessed as sleep efficiency at 40 mg, po measured on night 28 by polysomnography; type: functional
Homo sapiens [34] = experiment: Effect on sleep parameter in insomnia patient assessed as wake after sleep onset time at 20 mg, po measured on night 1 by polysomnography; type: functional
Homo sapiens [35] = experiment: Effect on sleep parameter in insomnia patient assessed as total sleep time at 40 mg, po measured on night 1 by polysomnography; type: functional
Homo sapiens [36] = experiment: Effect on sleep parameter in insomnia patient assessed as latency to persistent sleep time at 40 mg, po measured on night 1 by polysomnography; type: functional
Homo sapiens [37] = experiment: Effect on sleep parameter in insomnia patient assessed as wake after sleep onset time at 80 mg, po measured on night 1 by polysomnography; type: functional
[38] = Apparent permeability of the compound; type: physicochemical; conditions: not told
Homo sapiens [39] = experiment: Effect on sleep parameter in insomnia patient assessed as total sleep time at 10 mg, po measured on night 28 by polysomnography; type: functional
[40] = Plasma protein binding in dog; type: ADME, cell-free, Canis lupus familiaris; conditions: read-out: PPB (converted)
[41] = Plasma protein binding in rhesus monkey; type: ADME, cell-free, Macaca mulatta; conditions: read-out: PPB (converted)
Liver microsome = experiment: GSH activity in human liver microsomes assessed as reduction in GSH adduct formation; type: ADME; set-up: scale not given: the % may be the effect or the level left
[42] = Lipophilicity, log D of the compound; type: physicochemical; conditions: octanol/water
[43] = Clearance in iv dosed rhesus monkey; type: ADME, organism-based, Macaca mulatta; conditions: in vivo
[44] = Half life in iv dosed Sprague-Dawley rat; type: ADME, organism-based; conditions: in vivo
Mus musculus = experiment: Effect on sleep parameter in po dosed C57/BL6 mouse by EEG analysis; type: functional
[45] = Tmax in human plasma at 5 to 250 mg, po; type: ADME, organism-based
Cytochrome P450 3A4 = Cytochrome P450 3A4 (Homo sapiens, UniProt P08684); experiment: Inhibition of CYP3A4 (unknown origin); type: ADME
Sequence of Cytochrome P450 3A4 (P08684 whole entry): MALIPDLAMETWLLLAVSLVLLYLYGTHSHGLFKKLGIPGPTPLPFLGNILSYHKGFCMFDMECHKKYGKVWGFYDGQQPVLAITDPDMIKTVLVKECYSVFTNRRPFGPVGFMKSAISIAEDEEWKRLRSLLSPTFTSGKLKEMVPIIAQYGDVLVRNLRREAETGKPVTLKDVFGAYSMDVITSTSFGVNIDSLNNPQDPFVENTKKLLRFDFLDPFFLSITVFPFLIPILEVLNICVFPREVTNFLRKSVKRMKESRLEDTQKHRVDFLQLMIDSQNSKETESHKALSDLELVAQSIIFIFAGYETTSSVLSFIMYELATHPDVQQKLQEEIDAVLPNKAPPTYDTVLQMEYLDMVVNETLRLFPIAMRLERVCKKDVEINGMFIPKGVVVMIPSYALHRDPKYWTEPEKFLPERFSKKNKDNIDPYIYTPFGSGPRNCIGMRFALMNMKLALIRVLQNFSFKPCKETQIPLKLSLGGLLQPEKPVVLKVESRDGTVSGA

[46] = biological target: T1, Orexin/Hypocretin receptor type 1 (Homo sapiens, UniProt O43613); experiment: Antagonist activity at human OX1R expressed in CHO cells by FLIPR assay; type: cell-based
T1 sequence (O43613 whole entry): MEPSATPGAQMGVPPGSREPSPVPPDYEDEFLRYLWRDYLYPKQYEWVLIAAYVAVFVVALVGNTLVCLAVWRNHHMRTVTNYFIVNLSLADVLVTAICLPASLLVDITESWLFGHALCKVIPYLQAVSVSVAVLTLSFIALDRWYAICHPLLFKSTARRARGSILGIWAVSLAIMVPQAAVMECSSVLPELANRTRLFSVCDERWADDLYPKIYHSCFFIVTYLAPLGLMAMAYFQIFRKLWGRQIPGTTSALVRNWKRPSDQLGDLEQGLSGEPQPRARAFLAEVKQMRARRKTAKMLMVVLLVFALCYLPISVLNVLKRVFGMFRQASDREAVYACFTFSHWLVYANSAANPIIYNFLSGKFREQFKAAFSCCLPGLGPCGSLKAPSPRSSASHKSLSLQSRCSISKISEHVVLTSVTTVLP

[47] = Half life in iv dosed rhesus monkey; type: ADME, organism-based, Macaca mulatta; conditions: in vivo
Orexin receptor type 2 = biological target: T2, Orexin receptor type 2 (Homo sapiens, UniProt O43614); experiment: Antagonist activity at human OX2R expressed in CHO cells by FLIPR assay; type: cell-based
T2 sequence (O43614 whole entry): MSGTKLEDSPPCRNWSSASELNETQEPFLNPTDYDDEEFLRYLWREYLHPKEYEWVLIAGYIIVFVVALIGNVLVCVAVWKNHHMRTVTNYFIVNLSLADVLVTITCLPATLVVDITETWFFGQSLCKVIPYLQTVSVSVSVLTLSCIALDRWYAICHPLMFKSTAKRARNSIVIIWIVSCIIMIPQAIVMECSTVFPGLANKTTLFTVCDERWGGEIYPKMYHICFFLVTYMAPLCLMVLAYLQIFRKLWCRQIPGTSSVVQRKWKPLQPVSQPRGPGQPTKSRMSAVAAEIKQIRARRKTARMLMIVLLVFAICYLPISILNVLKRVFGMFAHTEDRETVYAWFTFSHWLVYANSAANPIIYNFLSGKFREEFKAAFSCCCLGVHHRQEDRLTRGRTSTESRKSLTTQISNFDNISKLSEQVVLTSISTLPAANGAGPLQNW

[48] = Oral bioavailability in Sprague-Dawley rat; type: ADME, organism-based; conditions: in vivo
[49] = Half life in iv dosed Beagle dog; type: ADME, organism-based, Canis lupus familiaris; conditions: in vivo
[50] = Clearance in iv dosed Sprague-Dawley rat; type: ADME, organism-based; conditions: in vivo
[51] = Oral bioavailability Beagle dog; type: ADME, organism-based, Canis lupus familiaris; conditions: in vivo
Rattus norvegicus [52] = experiment: Effect on sleep parameter in po dosed Sprague-Dawley rat by EEG analysis; type: functional
Rhesus monkey = experiment: Effect on sleep parameter in po dosed rhesus monkey by EEG analysis; type: functional, Macaca mulatta
Canis familiaris [53] = experiment: Effect on sleep parameter in po dosed Beagle dog by EEG analysis; type: functional, Canis lupus familiaris
[54] = Half life in human plasma at 5 to 250 mg, po; type: ADME, organism-based
[55] = Oral bioavailability rhesus monkey; type: ADME, organism-based, Macaca mulatta; conditions: in vivo
[56] = Plasma protein binding in Sprague-Dawley rat; type: ADME, cell-free; conditions: read-out: PPB (converted)
[57] = Plasma protein binding in Beagle dog; type: ADME, cell-free, Canis lupus familiaris; conditions: read-out: PPB (converted)
[58] = Clearance in iv dosed Beagle dog; type: ADME, organism-based, Canis lupus familiaris; conditions: in vivo
[59] = Plasma protein binding in human; type: ADME, cell-free; conditions: read-out: PPB (converted)

Cc1ccc(-n2nccn2)c(C(=O)N2CCN(c3nc4cc(Cl)ccc4o3)CC[C@H]2C)c1 [SUVOREXANT]
Time (Homo sapiens [1]): -33.2 min | Time (Homo sapiens [2]): 49.9 min | Time (Homo sapiens [3]): -28.9 min | Time (Homo sapiens [4]): -9.5 min | Time (Homo sapiens [5]): 25.1 min | Time (Homo sapiens [6]): -28.1 min | Time (Homo sapiens [7]): -21.2 min | Activity (Homo sapiens [8]): 5.2% | Time (Homo sapiens [9]): -3.8 min | Time (Homo sapiens [10]): -22.3 min | Time (Homo sapiens [11]): -2.3 min | Activity (Homo sapiens [12]): 7.6% | Tmax [13]: 1.5 h | Time (Homo sapiens [14]): 61.9 min | Time (Homo sapiens [15]): -25.4 min | Time (Homo sapiens [16]): 36.2 min | Time (Homo sapiens [17]): -21.4 min | Time (Homo sapiens [18]): -3.4 min | Activity (Homo sapiens [19]): 4.7% | Activity (Homo sapiens [20]): 12.9% | Time (Homo sapiens [21]): 36.8 min | Occ90 (Rattus norvegicus [22]): 1070 nM | Time (Homo sapiens [23]): 36.6 min | clearance [24]: 2.64 L/h/kg | Time (Homo sapiens [25]): -9.4 min | Activity (Homo sapiens [26]): 7.6% | Activity (Homo sapiens [27]): 10.4% | Activity (Homo sapiens [28]): 10.8% | half-life [29]: 8 h | Time (Homo sapiens [30]): -33.9 min | Activity (Rattus norvegicus [31]): 10 mg/kg | Activity (Canis familiaris [32]): 3 mg/kg | Activity (Homo sapiens [33]): 7.8% | Time (Homo sapiens [34]): -24.7 min | Time (Homo sapiens [35]): 52.4 min | Time (Homo sapiens [36]): -23.1 min | Time (Homo sapiens [37]): -36.8 min | Papp [38]: 370 nm/s | Time (Homo sapiens [39]): 22.3 min | fraction unbound [40]: 0.01

COc1ccc(CNC(=O)c2cc(-c3cncc(Cl)c3)cnc2-c2ccccn2)nc1OC [MK-1064]
fraction unbound [41]: 0.06 | Activity (Liver microsome): 85% | logD [42]: 1.8 | clearance [43]: 0.72 L/h/kg | half-life [44]: 0.3 h | Activity (Mus musculus): 100 mg/kg | Tmax [45]: 1 h | IC50 (Cytochrome P450 3A4): 28 µM | IC50 [46]: 1.79 µM | half-life [47]: 0.8 h | IC50 (Orexin receptor type 2): 0.018 µM | bioavailability [48]: 54% | half-life [49]: 1 h | clearance [50]: 2.16 L/h/kg | bioavailability [51]: 48% | Activity (Rattus norvegicus [52]): 20 mg/kg | Occ90 (Rattus norvegicus [22]): 695 nM | Activity (Rhesus monkey): 10 mg/kg | Activity (Canis familiaris [53]): 1 mg/kg | half-life [54]: 1.6 h | bioavailability [55]: 16% | fraction unbound [56]: 0.19 | fraction unbound [57]: 0.29 | clearance [58]: 0.96 L/h/kg | fraction unbound [59]: 0.03
